Test systems include HOP-92; SR; ACHN; RXF 393; SK-MEL-28; SF-268; SK-MEL-5; Hs-578T; A549; NCI/ADR-RES; UO-31; OVCAR-3; HL-60; OVCAR-8; K562; MDA-MB-231; RPMI-8226; IGROV-1; HT-29; CCRF-CEM.
Holding throughout (assay): growth of human tumour cells (NCI), 48 h

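1) Cells in 96-well plates. 2) Compound, 48 h, 5 concentrations. 3) Linear interpolation between surrounding doses. 4) Unreached endpoint = highest concentration. Abbreviation: GI50, concentration required for 50% inhibition of growth.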 Active and inactive are the calls of the source. No stated cut-off is given here; in the data, active = GI50 up to about 1.1 µM and inactive = higher. Where a SMILES comes first, the peptide text is derived from it. [ ]: non-standard residue; d: D form. The star is where a group is joined. ξ: configuration not given here. Propanoyl(3-(4-MeO-Ph)) = COc1ccc(CCC(=O)*)cc1; Thr(3ξ) = CC(O)[C@H](N)C(=O)O; dNMeL = CN[C@H](CC(C)C)C(=O)O; OBn = c1ccc(CO*)cc1; ξLac = CC(O)C(=O)O Bounds are passed on as bounds.

In the case of `CC(C)c1nc2c(Cl)c3ncccc3cc2[nH]c1=O`, the GI50 in the test on HOP-92 was > 100 µM (inactive); in the test with SR it was > 100 µM (inactive); in the test on ACHN, 44 µM (inactive); with RXF 393 it was > 100 µM (inactive); in the test with SK-MEL-28, > 100 µM (inactive); with SF-268, 34.1 µM (inactive). Moreover, the GI50 with SK-MEL-5 is 73.6 µM (inactive); in the test with Hs-578T, 25.8 µM (inactive); with A549, > 100 µM (inactive); with NCI/ADR-RES it was 37.8 µM (inactive); with UO-31, > 100 µM (inactive); in the test with OVCAR-3, > 100 µM (inactive). In addition, the GI50 in the test with HL-60 is 50.4 µM (inactive); with OVCAR-8, 29.2 µM (inactive); in the test with K562, > 100 µM (inactive); in the test on MDA-MB-231, 73.6 µM (inactive); with RPMI-8226 it was > 100 µM (inactive); in the test on IGROV-1, 14.8 µM (inactive). Besides, the GI50 is > 100 µM (inactive) in the test with HT-29 and 46.2 µM (inactive) with CCRF-CEM.
For `O=C1CSC(c2cc3cc(Br)ccc3nc2Cl)N1c1ccc(F)c(Cl)c1` (stereo not given), the GI50 was > 50 µM (inactive) with HOP-92; 12.7 µM (inactive) with SR; > 50 µM (inactive) in the test with ACHN; > 50 µM (inactive) in the test on RXF 393; > 50 µM (inactive) with SK-MEL-28; 29.5 µM (inactive) in the test on SF-268. Also, the GI50 with SK-MEL-5, in the test with Hs-578T, in the test on A549, with NCI/ADR-RES, in the test on UO-31 and in the test with OVCAR-3 was > 50 µM (inactive) in each case. Besides, the GI50 was > 50 µM (inactive) in the test with HL-60; > 50 µM (inactive) in the test on OVCAR-8; 18.6 µM (inactive) with K562; > 50 µM (inactive) in the test with MDA-MB-231; 18.1 µM (inactive) with RPMI-8226; 18.6 µM (inactive) with IGROV-1. In addition, the GI50 in the test on HT-29 was > 50 µM (inactive); in the test on CCRF-CEM, 13.1 µM (inactive).
For `CN(C)CC1COC2Cc3ccccc3C1O2` (stereo not given), the GI50 in the test on HOP-92, with SR, with ACHN, in the test on RXF 393, with SK-MEL-28 and in the test with SF-268 was > 100 µM (inactive) in each case. Also, the GI50 in the test with SK-MEL-5, with Hs-578T, in the test with A549, in the test with NCI/ADR-RES, in the test with UO-31 and with OVCAR-3 was > 100 µM (inactive) each time. The GI50 was 72.6 µM (inactive) with HL-60; > 100 µM (inactive) in the test with OVCAR-8; > 100 µM (inactive) in the test with K562; > 100 µM (inactive) with MDA-MB-231; > 100 µM (inactive) in the test with RPMI-8226; > 100 µM (inactive) in the test with IGROV-1. In addition, the GI50 in the test on HT-29 and with CCRF-CEM was > 100 µM (inactive) each time.
In the case of `O=C1N[C@@H](c2c[nH]c3cc(Br)ccc23)C(=O)N[C@H]1c1c[nH]c2cc(Br)ccc12`, the GI50 is 40.6 µM (inactive) in the test on HOP-92; > 100 µM (inactive) in the test with SR; > 100 µM (inactive) with ACHN; > 100 µM (inactive) in the test on RXF 393; > 100 µM (inactive) in the test on SK-MEL-28; 47.4 µM (inactive) in the test on SF-268. Further, the GI50 with SK-MEL-5, with Hs-578T, with A549, in the test with NCI/ADR-RES, in the test on UO-31 and in the test on OVCAR-3 was > 100 µM (inactive) throughout. Moreover, the GI50 was > 100 µM (inactive) with HL-60; 29.9 µM (inactive) in the test with OVCAR-8; > 100 µM (inactive) in the test with K562; 17.1 µM (inactive) in the test with MDA-MB-231; > 100 µM (inactive) in the test with RPMI-8226; > 100 µM (inactive) in the test on IGROV-1. Also, the GI50 in the test on HT-29 and in the test on CCRF-CEM was > 100 µM (inactive) throughout.
As for `CC1(C)OC(=O)N(c2ccccc2)C12C=Cc1cc([N+](=O)[O-])cc([N+](=O)[O-])c1O2` (stereo not given), the GI50 with HOP-92 is 12.4 µM (inactive); in the test on SR, > 100 µM (inactive); in the test on ACHN it was > 100 µM (inactive); with RXF 393, > 100 µM (inactive); with SK-MEL-28, > 100 µM (inactive); in the test with SF-268 it was 98.9 µM (inactive). The GI50 is > 100 µM (inactive) with SK-MEL-5; 59.8 µM (inactive) with Hs-578T; > 100 µM (inactive) in the test on A549; > 100 µM (inactive) with NCI/ADR-RES; 34.2 µM (inactive) with UO-31; 97.7 µM (inactive) with OVCAR-3. Also, the GI50 with HL-60 was 61.9 µM (inactive); with OVCAR-8 it was > 100 µM (inactive); with K562 it was 89.3 µM (inactive); with MDA-MB-231 it was > 100 µM (inactive); in the test with RPMI-8226, > 100 µM (inactive); in the test on IGROV-1, > 100 µM (inactive). Moreover, the GI50 with HT-29 and in the test on CCRF-CEM was > 100 µM (inactive) throughout.
For the compound `Cc1ccc(NC(c2ccccc2)c2ccc3cccnc3c2O)cc1` (stereo not given), the GI50 is 3.48 µM (inactive) with HOP-92; 2.44 µM (inactive) with SR; 3.67 µM (inactive) with ACHN; 4.4 µM (inactive) with RXF 393; 9.29 µM (inactive) with SK-MEL-28; 2.24 µM (inactive) in the test with SF-268. The GI50 in the test with SK-MEL-5 was 3.97 µM (inactive); in the test on Hs-578T, 9.02 µM (inactive); in the test with A549, 5.56 µM (inactive); with NCI/ADR-RES it was 2.79 µM (inactive); in the test on UO-31, 3.33 µM (inactive); in the test on OVCAR-3, 2.59 µM (inactive). Besides, the GI50 in the test with HL-60 is 2.04 µM (inactive); in the test on OVCAR-8 it was 2.64 µM (inactive); in the test with K562, 3.02 µM (inactive); with MDA-MB-231, 4.55 µM (inactive); with RPMI-8226, 2.61 µM (inactive); in the test on IGROV-1, 4.09 µM (inactive). Further, the GI50 in the test with HT-29 is 2.9 µM (inactive); in the test on CCRF-CEM, 0.787 µM (active).
As to `COc1ccc(NC(C(N)=O)c2cc3cc(Br)ccc3nc2Cl)cc1` (stereo not given), the GI50 in the test on HOP-92 was 22.5 µM (inactive); in the test on SR it was 15.6 µM (inactive); with ACHN, > 100 µM (inactive); in the test with RXF 393, 38.3 µM (inactive); in the test with SK-MEL-28 it was > 100 µM (inactive); with SF-268 it was 76.4 µM (inactive). For the same compound, the GI50 in the test on SK-MEL-5 is 53.5 µM (inactive); in the test with Hs-578T, > 100 µM (inactive); in the test with A549, 91.8 µM (inactive); with NCI/ADR-RES, 39 µM (inactive); in the test with UO-31, > 100 µM (inactive); in the test with OVCAR-3 it was 60.7 µM (inactive). Further, the GI50 was 25.4 µM (inactive) with HL-60; 57.1 µM (inactive) in the test with OVCAR-8; 26.7 µM (inactive) in the test with K562; 90.6 µM (inactive) in the test on MDA-MB-231; 30.4 µM (inactive) with RPMI-8226; 25.5 µM (inactive) in the test with IGROV-1. Further, the GI50 was > 100 µM (inactive) in the test on HT-29 and 26.2 µM (inactive) in the test on CCRF-CEM.
Turning to `CCCCCCNC(=O)c1cc(CCc2cc(O)ccc2O)ccc1O`, the GI50 with HOP-92 was 1.72 µM (inactive); in the test with SR it was 2.23 µM (inactive); in the test on ACHN it was 2.66 µM (inactive); with RXF 393, 1.8 µM (inactive); with SK-MEL-28, 2.74 µM (inactive); in the test on SF-268, 2.77 µM (inactive). Besides, the GI50 was 4.62 µM (inactive) with SK-MEL-5; 3.59 µM (inactive) in the test with Hs-578T; 7.83 µM (inactive) with A549; 3.61 µM (inactive) in the test on NCI/ADR-RES; 1.55 µM (inactive) with UO-31; 2.3 µM (inactive) with OVCAR-3. In addition, the GI50 with HL-60 is 0.723 µM (active); in the test on OVCAR-8 it was 3.56 µM (inactive); with K562, 2.38 µM (inactive); with MDA-MB-231, 2.25 µM (inactive); in the test with RPMI-8226, 1.11 µM (active); in the test on IGROV-1 it was 2.1 µM (inactive). The results for the GI50 in the test on HT-29 and with CCRF-CEM were 20.1 µM (inactive) and 1.92 µM (inactive), respectively.
`COc1ccc(CCC(=O)OC(C)[C@H](NC(=O)[C@@H](CC(C)C)N(C)C(=O)[C@@H]2CCCN2C(=O)C(C)O)C(=O)OCc2ccccc2)cc1` (stereo not given in full) (H-[ξLac]P[dNMeL][Thr(3ξ)](Propanoyl(3-(4-MeO-Ph)))-OBn): the GI50 in the test with HOP-92 is 19.1 µM (inactive); in the test with SR, 34.4 µM (inactive); in the test on ACHN, 41.6 µM (inactive); with RXF 393, 22.1 µM (inactive); with SK-MEL-28, 17.8 µM (inactive); in the test with SF-268, 31.5 µM (inactive). The GI50 in the test on SK-MEL-5 was 15.5 µM (inactive); in the test on Hs-578T, 12.9 µM (inactive); in the test with A549 it was 52.4 µM (inactive); in the test on NCI/ADR-RES it was 27.5 µM (inactive); in the test with UO-31, 40.5 µM (inactive); in the test on OVCAR-3 it was 29.8 µM (inactive). For the same compound, the GI50 in the test on HL-60 was 28.2 µM (inactive); in the test with OVCAR-8, 96.2 µM (inactive); in the test with K562, 27.8 µM (inactive); in the test with MDA-MB-231, 19.3 µM (inactive); with RPMI-8226, 28.7 µM (inactive); in the test on IGROV-1, 30.5 µM (inactive). Moreover, the GI50 was 36.5 µM (inactive) in the test with HT-29 and 26.9 µM (inactive) in the test on CCRF-CEM.
